Data set [1] addresses Serine/threonine-protein kinase Nek7 (Homo sapiens) (UniProt Q8TDX7). Kind of data set: Selectivity interaction (Kinase panel (Z-LYTE Assay)) EUB0001632a NEK7. The settings on record: at 10 µM.
For data set [2], the target named is Non-receptor tyrosine-protein kinase TYK2 (Homo sapiens, UniProt P29597). The settings on record: at 10 µM.
Data set [3] has as its target Aurora kinase A (Homo sapiens, UniProt O14965). Kind of data set: Selectivity interaction (Radiometric kinase assay (using 10 uM ATP)) EUB0000601a STK6.
For data set [4], the target named is Cyclin-dependent kinase 5/CDK5 activator 1 (Homo sapiens) (UniProt Q00535+Q15078). Kind of data set: Selectivity interaction (Kinase panel (Invitrogen)) EUB0000639a CDK5. Type of data set: protein-complex assay. The settings on record: at 200 nM.
The target of data set [5] is SRSF protein kinase 1 (Homo sapiens, UniProt Q96SB4). Kind of data set: Selectivity interaction (ActivX KiNativ screen (kinase selectivity in THP-1 cell lysates)) EUB0000639a SRPK1. The settings on record: lysate, at 5 µM. In kind it is subcellular.
Data set [6] addresses Ephrin type-A receptor 4 (Homo sapiens, UniProt P54764). Briefly: Selectivity interaction (KinomeScan (DiscoverX)) EUB0000045b EPHA4.
Data set [7] addresses Delta-type opioid receptor (Homo sapiens, UniProt P41143). Kind of data set: Selectivity interaction (GPCR panel (PDSP screen)) EUB0000311b OPRD1. The conditions noted are these: at 10 µM.
The target in data set [8] is Ribosomal protein S6 kinase alpha-3 (Homo sapiens, UniProt P51812). Kind of data set: Selectivity interaction (KinomeScan (DiscoverX)) EUB0001049a RPS6KA3. The settings on record: at 1 µM.
Data set [9] has as its target Macrophage-stimulating protein receptor (Homo sapiens, UniProt Q04912). Briefly: Selectivity interaction (KinomeScan (DiscoverX)) EUB0000655a MST1R. The conditions noted are these: at 10 µM.
Data set [10] addresses T1, Serine/threonine-protein kinase RIO1 (Homo sapiens) (UniProt Q9BRS2).
T1 sequence (whole entry): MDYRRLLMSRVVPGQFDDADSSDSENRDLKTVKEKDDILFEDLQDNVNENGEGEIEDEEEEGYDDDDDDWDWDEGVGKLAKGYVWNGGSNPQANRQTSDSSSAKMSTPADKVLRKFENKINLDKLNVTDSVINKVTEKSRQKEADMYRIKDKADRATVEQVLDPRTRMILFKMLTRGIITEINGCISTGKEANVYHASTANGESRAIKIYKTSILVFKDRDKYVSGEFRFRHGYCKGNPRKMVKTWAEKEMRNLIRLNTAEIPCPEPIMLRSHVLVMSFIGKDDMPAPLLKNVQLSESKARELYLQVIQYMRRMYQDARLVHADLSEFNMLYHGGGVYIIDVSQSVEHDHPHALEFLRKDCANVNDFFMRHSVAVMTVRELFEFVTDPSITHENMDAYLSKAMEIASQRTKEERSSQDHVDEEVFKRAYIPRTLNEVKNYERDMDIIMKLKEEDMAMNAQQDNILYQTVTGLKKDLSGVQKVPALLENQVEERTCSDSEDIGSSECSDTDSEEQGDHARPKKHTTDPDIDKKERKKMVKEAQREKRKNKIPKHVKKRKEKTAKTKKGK
Kind of data set: Selectivity interaction (KinomeScan (DiscoverX)) EUB0000618a RIOK1. The settings on record: at 10 µM.

In data set [11] the target is Voltage-gated inwardly rectifying potassium channel KCNH2 (Homo sapiens, UniProt Q12809). Kind of data set: Selectivity interaction (Panel of non-epigenetic targets (kinases, GPCRs, ion channels, and transporters, Eurofins) ) EUB0000271b KCNH2. The conditions noted are these: at 1 µM.
For data set [12], the target named is T2, Serine/threonine-protein kinase BRSK1 (Homo sapiens) (UniProt Q8TDC3).
T2 sequence (whole entry): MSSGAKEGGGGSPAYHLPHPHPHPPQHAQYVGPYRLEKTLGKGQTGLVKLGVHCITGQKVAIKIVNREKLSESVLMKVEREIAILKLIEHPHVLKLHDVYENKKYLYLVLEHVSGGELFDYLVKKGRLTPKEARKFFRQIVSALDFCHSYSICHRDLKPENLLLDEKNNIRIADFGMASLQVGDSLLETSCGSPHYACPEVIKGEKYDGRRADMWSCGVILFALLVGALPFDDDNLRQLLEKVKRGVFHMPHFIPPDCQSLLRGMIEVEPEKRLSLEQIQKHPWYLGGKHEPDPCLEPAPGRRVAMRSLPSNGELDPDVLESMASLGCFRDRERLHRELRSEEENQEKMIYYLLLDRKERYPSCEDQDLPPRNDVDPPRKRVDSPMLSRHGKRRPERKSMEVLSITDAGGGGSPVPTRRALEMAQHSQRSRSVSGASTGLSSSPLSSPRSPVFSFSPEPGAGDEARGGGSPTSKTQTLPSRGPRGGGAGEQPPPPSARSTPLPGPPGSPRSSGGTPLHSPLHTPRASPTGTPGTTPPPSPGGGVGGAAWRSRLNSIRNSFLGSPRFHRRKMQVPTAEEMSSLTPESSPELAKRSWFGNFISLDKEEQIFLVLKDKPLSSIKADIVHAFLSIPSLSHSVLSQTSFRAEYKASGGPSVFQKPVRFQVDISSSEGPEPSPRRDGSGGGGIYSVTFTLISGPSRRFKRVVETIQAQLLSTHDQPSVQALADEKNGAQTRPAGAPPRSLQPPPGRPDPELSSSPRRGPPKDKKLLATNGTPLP
Kind of data set: Selectivity interaction (KinomeScan (DiscoverX)) EUB0001079a BRSK1. The settings on record: at 1 µM.

The target in data set [13] is Tyrosine-protein kinase HCK (Homo sapiens) (UniProt P08631). Briefly: Selectivity interaction (KinomeScan (DiscoverX)) EUB0000229b HCK. The conditions noted are these: at 10 µM.

Broadly, the IC50 is the concentration that inhibits the measured activity by half.

Ephrin type-A receptor 4, sequence (P54764 whole entry): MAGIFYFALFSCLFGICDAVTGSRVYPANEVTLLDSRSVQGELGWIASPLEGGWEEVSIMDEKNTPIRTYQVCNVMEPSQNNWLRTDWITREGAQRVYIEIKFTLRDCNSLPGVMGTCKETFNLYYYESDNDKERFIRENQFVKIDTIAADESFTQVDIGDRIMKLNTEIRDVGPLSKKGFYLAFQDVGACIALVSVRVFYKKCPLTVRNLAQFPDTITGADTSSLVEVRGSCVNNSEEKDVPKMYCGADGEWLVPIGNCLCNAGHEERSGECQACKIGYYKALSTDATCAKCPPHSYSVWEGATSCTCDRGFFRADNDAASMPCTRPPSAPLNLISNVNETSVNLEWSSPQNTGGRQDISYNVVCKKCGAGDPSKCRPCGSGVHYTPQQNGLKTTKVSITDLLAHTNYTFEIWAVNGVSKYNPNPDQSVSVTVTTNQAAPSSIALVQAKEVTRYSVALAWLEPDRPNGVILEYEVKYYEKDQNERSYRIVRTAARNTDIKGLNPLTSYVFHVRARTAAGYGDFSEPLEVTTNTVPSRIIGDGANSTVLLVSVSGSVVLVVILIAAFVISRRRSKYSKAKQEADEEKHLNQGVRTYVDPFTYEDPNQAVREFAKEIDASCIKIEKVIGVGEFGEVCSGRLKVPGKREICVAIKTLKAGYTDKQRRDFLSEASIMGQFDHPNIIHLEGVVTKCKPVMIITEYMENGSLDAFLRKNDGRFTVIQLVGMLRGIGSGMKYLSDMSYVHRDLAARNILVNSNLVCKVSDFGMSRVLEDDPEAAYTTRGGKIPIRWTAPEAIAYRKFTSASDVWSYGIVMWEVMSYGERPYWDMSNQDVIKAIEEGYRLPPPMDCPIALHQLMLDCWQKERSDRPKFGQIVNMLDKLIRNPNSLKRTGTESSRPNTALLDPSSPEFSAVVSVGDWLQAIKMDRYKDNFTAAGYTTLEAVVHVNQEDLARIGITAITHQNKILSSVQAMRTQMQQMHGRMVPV
Macrophage-stimulating protein receptor, sequence (Q04912 25-304 limits assumed): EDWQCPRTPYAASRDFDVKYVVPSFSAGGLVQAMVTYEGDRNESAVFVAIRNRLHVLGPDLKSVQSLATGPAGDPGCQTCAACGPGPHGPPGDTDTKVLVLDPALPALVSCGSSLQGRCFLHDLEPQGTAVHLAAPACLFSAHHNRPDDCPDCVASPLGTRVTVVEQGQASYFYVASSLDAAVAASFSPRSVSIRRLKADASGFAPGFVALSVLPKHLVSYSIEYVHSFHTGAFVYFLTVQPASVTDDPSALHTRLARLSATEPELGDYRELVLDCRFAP
Macrophage-stimulating protein receptor, sequence (Q04912 310-1400 limits assumed): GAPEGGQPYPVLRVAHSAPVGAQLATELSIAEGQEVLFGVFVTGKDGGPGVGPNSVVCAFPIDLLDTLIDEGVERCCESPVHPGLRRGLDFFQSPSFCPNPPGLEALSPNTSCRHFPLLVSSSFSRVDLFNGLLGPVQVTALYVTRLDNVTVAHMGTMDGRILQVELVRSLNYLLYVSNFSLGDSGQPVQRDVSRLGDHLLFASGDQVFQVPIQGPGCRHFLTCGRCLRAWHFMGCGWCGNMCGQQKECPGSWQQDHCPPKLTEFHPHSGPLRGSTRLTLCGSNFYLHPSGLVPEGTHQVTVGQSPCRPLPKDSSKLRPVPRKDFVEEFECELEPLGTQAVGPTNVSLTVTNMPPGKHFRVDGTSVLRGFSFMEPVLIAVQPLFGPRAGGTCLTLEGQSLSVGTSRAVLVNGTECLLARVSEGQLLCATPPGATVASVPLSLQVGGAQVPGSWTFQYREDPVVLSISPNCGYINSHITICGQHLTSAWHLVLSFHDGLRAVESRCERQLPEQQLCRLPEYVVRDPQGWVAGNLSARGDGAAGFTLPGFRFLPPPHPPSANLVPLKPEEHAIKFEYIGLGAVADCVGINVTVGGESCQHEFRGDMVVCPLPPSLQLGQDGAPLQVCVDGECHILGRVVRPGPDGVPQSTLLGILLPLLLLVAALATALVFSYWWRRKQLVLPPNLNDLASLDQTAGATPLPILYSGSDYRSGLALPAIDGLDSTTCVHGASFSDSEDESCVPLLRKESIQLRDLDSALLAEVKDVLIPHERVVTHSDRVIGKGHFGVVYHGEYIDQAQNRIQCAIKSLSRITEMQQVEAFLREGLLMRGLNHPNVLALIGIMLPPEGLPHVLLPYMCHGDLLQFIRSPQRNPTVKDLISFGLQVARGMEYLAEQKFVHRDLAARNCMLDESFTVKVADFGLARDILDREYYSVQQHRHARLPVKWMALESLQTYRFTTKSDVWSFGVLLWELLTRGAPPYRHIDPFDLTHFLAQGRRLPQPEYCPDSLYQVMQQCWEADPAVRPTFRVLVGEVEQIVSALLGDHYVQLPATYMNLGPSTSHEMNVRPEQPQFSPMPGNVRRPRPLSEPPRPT
Serine/threonine-protein kinase Nek7 (Homo sapiens), sequence (Q8TDX7 whole entry, looked up): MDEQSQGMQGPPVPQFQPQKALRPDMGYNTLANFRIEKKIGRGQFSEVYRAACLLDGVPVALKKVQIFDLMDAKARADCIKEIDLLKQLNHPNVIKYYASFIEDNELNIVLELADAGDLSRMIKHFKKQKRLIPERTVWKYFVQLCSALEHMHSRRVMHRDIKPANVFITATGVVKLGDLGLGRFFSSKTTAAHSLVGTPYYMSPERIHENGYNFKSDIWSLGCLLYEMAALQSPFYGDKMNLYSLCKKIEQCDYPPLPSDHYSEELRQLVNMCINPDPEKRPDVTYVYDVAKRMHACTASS
Cyclin-dependent kinase 5/CDK5 activator 1 (Homo sapiens), sequence (Q00535 whole entry): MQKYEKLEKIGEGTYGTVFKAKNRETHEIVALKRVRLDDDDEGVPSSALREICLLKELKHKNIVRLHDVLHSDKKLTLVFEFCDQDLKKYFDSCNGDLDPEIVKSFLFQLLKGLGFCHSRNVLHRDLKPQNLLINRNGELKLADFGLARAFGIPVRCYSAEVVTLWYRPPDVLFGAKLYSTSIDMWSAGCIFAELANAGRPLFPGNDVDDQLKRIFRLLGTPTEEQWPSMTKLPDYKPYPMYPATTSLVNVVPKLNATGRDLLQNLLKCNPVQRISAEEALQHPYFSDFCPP
Cyclin-dependent kinase 5/CDK5 activator 1 (Homo sapiens), sequence (Q15078 99-307 partner limits assumed): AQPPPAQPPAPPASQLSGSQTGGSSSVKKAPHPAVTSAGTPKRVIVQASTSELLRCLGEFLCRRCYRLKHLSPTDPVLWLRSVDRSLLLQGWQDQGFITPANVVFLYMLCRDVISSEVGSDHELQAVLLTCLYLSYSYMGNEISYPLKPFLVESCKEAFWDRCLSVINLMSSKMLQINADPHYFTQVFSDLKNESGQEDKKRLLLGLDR
Tyrosine-protein kinase HCK (Homo sapiens), sequence (P08631 2-526 limits assumed): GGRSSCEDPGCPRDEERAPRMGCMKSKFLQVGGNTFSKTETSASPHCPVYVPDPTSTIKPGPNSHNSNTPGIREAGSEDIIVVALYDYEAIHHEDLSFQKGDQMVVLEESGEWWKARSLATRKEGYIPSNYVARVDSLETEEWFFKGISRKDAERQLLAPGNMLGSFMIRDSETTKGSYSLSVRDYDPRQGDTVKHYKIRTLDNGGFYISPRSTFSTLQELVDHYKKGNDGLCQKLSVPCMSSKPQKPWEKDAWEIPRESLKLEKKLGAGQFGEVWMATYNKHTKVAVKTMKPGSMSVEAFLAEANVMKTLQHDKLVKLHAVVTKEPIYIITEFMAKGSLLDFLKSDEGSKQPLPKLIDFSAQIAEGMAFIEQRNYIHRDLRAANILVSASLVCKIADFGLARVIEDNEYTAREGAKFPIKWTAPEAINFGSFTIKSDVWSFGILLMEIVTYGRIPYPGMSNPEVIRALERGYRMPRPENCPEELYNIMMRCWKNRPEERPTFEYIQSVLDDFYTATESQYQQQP
SRSF protein kinase 1, sequence (Q96SB4 whole entry): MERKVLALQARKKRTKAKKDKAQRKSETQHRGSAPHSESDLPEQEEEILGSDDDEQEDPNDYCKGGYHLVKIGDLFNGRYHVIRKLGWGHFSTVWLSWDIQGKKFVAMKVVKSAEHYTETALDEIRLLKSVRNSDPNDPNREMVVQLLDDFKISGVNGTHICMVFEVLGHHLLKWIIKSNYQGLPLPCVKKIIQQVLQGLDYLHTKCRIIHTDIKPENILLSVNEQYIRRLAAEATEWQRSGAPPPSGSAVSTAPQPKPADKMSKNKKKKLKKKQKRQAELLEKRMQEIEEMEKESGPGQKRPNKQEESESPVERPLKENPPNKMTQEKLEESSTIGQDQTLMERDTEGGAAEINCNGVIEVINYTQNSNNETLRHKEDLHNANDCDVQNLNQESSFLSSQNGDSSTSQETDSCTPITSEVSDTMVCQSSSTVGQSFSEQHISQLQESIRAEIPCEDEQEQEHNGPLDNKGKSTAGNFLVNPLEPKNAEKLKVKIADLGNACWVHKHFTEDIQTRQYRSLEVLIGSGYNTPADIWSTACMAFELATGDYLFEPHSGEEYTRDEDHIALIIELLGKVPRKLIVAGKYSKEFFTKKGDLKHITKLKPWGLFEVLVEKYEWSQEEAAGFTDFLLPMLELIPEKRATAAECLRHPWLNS
Delta-type opioid receptor, sequence (P41143 whole entry): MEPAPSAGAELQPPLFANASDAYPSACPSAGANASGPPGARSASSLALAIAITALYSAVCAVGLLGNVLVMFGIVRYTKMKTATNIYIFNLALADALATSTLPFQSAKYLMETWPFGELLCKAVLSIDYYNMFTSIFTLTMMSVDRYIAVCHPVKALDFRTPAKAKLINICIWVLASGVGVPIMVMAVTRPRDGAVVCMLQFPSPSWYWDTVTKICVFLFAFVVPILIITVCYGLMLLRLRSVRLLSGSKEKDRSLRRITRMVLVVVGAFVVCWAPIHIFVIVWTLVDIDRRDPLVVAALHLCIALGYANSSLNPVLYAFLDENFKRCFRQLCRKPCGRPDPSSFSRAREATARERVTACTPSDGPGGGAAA

As for `Cn1cc(-n2cnc3c(NCc4nc5cc(Cl)c(Cl)cc5[nH]4)nc(N4CCOCC4)nc32)cn1`, the % of control in data set [1] was -10.9%. `Cc1cc([C@@H](C)Nc2ccccc2C(=O)O)c2nc(N3CCOCC3)cc(=O)n2c1` [AZD-6482]: in data set [2], the % of control is 100%. In data set [3], `CCc1cc(Nc2nccc(-c3c(-c4ccc(OC)c(C(=O)Nc5c(F)cccc5F)c4)nc4ccccn34)n2)c(OC)cc1N1CCC(N2CCN(S(C)(=O)=O)CC2)CC1` returned an IC50 above 1500 nM.

Take `CC[C@@H]1[C@H](F)C(=O)N[C@@H]1COc1nccc2cc(C(N)=O)c(OC)cc12` [ZIMLOVISERTIB]: the % of inhibition was 4.16% in data set [4] and -1.1% in data set [5]. For `C=CC(=O)Nc1cc(-n2c(=O)ccc3cnc4ccc(-c5ccc(NS(C)(=O)=O)cc5)cc4c32)ccc1C`, the values for the % of control in data set [6] (at 1 µM) and in [6] (at 10 µM) were 89% and 100%, respectively.

For `CCc1ccccc1C(=O)Nc1n[nH]c2c(C)c(F)c(C3C(C#N)=C(C)N(C)C(C)=C3C#N)cc12` [BAY-3827], the % of inhibition in data set [7] is 20.5%.

`COc1cc(Nc2nc(C)cc(-c3cnn4nc(OC)ccc34)n2)cc(C(F)(F)F)c1`: in data set [8], the % of control came out at 77%. Take `CN(C)CCOc1ccc(-c2nc(-c3ccncc3)c(-c3ccc4c(c3)CC/C4=N\O)[nH]2)cc1`: the % of control in data set [9] came to 100%. `O[C@H]1CC[C@H](Nc2ncc3nc(Nc4c(F)cc(F)cc4F)n([C@H]4CCOC4)c3n2)CC1`: the % of control in data set [10] was 100%. As to `Cc1cc(C)cc([C@@H]2c3cc(C)ccc3NC(=O)CN2C(=O)c2ccc(Br)s2)c1`, the “% of inhibition” value in [11] amounted to 0%.

Take `Nc1cnc(N2CCc3cc(S(=O)(=O)Nc4c(F)cc(Cl)cc4F)cc(N4CCCC4=O)c32)nc1` [TP-020n]: in data set [12], the % of control is 100%. In [13], `COc1cc(N(C)c2ccnc3ccc(C(F)(F)F)cc23)cc(OC)c1OC` displayed a % binding of 100%.

Values taken from ChEMBL document CHEMBL5465560, “Selectivity Literature for EUbOPEN Chemogenomic Library” (2024).
